ChEMBL document CHEMBL5244281, “Tackling multidrug-resistant Staphylococcus aureus by natural products and their analogues acting as NorA efflux pump inhibitors” (Bioorg Med Chem, 2023)
Converted amounts (≈) assume the structure as drawn.

Key:
Staphylococcus aureus [1] = assay: Antibacterial activity against norfloxacin resistant Staphylococcus aureus 1199B overexpressing NorA assessed as bacterial growth inhibition incubated for 24 hrs by resazurin based broth microdilution method; type: functional
Staphylococcus aureus [2] = assay: Antibacterial activity against norfloxacin resistant Staphylococcus aureus 1199 assessed as bacterial growth inhibition incubated for 24 hrs by resazurin based broth microdilution method; type: functional
Staphylococcus aureus [3] = assay: Antibacterial activity against Staphylococcus aureus RN4220 overexpressing […] efflux protein assessed as bacterial growth inhibition incubated for 24 hrs by resazurin based microdilution assay; type: functional
Staphylococcus aureus [4] = assay: Antibacterial activity against Staphylococcus aureus K4100 overexpressing qacC gene assessed as bacterial growth inhibition incubated for 24 hrs by resazurin based microdilution assay; type: functional
Staphylococcus aureus [5] = assay: Antibacterial activity against wild type Staphylococcus aureus ATCC 25923 assessed as bacterial growth inhibition incubated for 24 hrs by resazurin based microdilution assay; type: functional
Staphylococcus aureus [6] = assay: Antibacterial activity against Staphylococcus aureus K4414 overexpressing qacA/B gene assessed as bacterial growth inhibition incubated for 24 hrs by resazurin based microdilution assay; type: functional
Staphylococcus aureus [7] = assay: Antibacterial activity against Staphylococcus aureus IS-58 overexpressing TetK efflux protein assessed as bacterial growth inhibition incubated for 24 hrs by resazurin based microdilution assay; type: functional
Staphylococcus aureus [8] = assay: Antibacterial activity against Staphylococcus aureus 1199B overexpressing NorA efflux protein assessed as bacterial growth inhibition incubated for 24 hrs by resazurin based microdilution assay; type: functional
Staphylococcus aureus [9] = assay: Antibacterial activity against Staphylococcus aureus K2068 overexpressing mepA gene assessed as bacterial growth inhibition incubated for 24 hrs by resazurin based microdilution assay; type: functional
Staphylococcus aureus [10] = assay: Synergistic antimicrobial activity against Staphylococcus aureus 1199B overexpressing NorA efflux pump assessed as reduction in norfloxacin MIC incubated for 24 hrs by MTT colorimetric assay (Rvb= […]); type: functional
Staphylococcus aureus [11] = assay: Synergistic antimicrobial activity against Staphylococcus aureus 1199B overexpressing NorA efflux pump assessed as fractional inhibitory concentration index incubated for 24 hrs by checkerboard method; type: functional
[12] = molecular target: T1, Quinolone resistance protein NorA (Staphylococcus aureus) (UniProt P0A0J7); assay: Inhibition of NorA efflux pump in Staphylococcus aureus 1199B overexpressing NorA efflux pump assessed as norfloxacin MIC at 1/8 times of MIC using norfloxacin as substrate incubated for 24 hrs by resazurin based assay (Rvb= 406.37 ug/ml)
T1 sequence (whole entry): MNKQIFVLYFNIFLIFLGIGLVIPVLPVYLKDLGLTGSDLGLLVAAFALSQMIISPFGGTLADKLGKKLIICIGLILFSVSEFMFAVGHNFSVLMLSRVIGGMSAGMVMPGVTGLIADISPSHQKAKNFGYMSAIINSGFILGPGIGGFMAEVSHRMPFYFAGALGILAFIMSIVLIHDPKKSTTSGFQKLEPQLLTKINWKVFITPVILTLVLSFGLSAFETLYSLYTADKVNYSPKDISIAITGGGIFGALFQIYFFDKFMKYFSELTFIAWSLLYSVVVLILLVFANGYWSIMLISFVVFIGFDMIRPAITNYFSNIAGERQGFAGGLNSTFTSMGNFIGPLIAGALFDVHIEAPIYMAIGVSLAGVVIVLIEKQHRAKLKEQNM

Staphylococcus aureus [13] = assay: Antibacterial activity against wild type Staphylococcus aureus 1199 assessed as bacterial growth inhibition incubated for 24 hrs by resazurin based microdilution assay; type: functional
[14] = molecular target: T1, Quinolone resistance protein NorA (Staphylococcus aureus); assay: Inhibition of NorA efflux pump in Staphylococcus aureus 1199 assessed as norfloxacin MIC at 1/8 times of MIC using norfloxacin as substrate incubated for 24 hrs by resazurin based assay (Rvb= 32 ug/ml)
[15] = molecular target: T1, Quinolone resistance protein NorA (Staphylococcus aureus); assay: Inhibition of NorA efflux pump in Staphylococcus aureus 1199B overexpressing NorA efflux pump assessed as EtBr MIC at 1/8 times of MIC using EtBr as substrate incubated for 24 hrs by resazurin based assay (Rvb= 256 ug/ml)
[16] = molecular target: T1, Quinolone resistance protein NorA (Staphylococcus aureus); assay: Inhibition of NorA efflux pump in Staphylococcus aureus 1199 assessed as EtBr MIC at 1/8 times of MIC using EtBr as substrate incubated for 24 hrs by resazurin based assay (Rvb= 256 ug/ml)
Staphylococcus aureus [17] = assay: Antibacterial activity against Staphylococcus aureus 1199B expressing NorA efflux protein assessed as bacterial growth inhibition incubated for 24 hrs by resazurin based microdilution assay; type: functional
Staphylococcus aureus [18] = assay: Antibacterial activity against Staphylococcus aureus ATCC25923 assessed as bacterial growth inhibition incubated for 18 hrs by MTT assay; type: functional
Staphylococcus aureus [19] = assay: Antibacterial activity against Staphylococcus aureus EMRSA-15 assessed as bacterial growth inhibition incubated for 18 hrs by MTT assay; type: functional
Staphylococcus aureus [20] = assay: Antibacterial activity against Staphylococcus aureus RN4220 assessed as bacterial growth inhibition incubated for 18 hrs by MTT assay; type: functional
Staphylococcus aureus [21] = assay: Antibacterial activity against Staphylococcus aureus 1199B overexpressing NorA assessed as bacterial growth inhibition incubated for 18 hrs by MTT assay; type: functional
Staphylococcus aureus [22] = assay: Antibacterial activity against tetracycline-resistant Staphylococcus aureus XU212 assessed as bacterial growth inhibition incubated for 18 hrs by MTT assay; type: functional
[23] = molecular target: T1, Quinolone resistance protein NorA (Staphylococcus aureus); assay: Modulation of norfloxacin-induced inhibition of NorA efflux pump in Staphylococcus aureus 1199B overexpressing NorA efflux pump assessed as reduction in norfloxacin MIC at 1/4 times of MIC by resazurin based assay
[24] = molecular target: T1, Quinolone resistance protein NorA (Staphylococcus aureus); assay: Modulation of EtBr -induced inhibition of NorA efflux pump in Staphylococcus aureus 1199B overexpressing NorA efflux pump assessed as reduction in EtBr MIC at 1/4 times of MIC using EtBr as substrate by resazurin based assay

C/C=C/c1ccc(O)c(OC)c1 was tested, and the MIC (Staphylococcus aureus [1]) was 32 µg/mL (≈ 195 µM) and the MIC (Staphylococcus aureus [2]) was 40.3 µg/mL (≈ 245 µM).

COc1ccc(/C=C/C(=O)c2ccc(O)cc2)cc1OC gave an MIC (Staphylococcus aureus [3]) of 100 µg/mL (≈ 352 µM), an MIC (Staphylococcus aureus [4]) of 100 µg/mL (≈ 352 µM) and an MIC (Staphylococcus aureus [5]) of 100 µg/mL (≈ 352 µM). It also gave an MIC (Staphylococcus aureus [6]) of 100 µg/mL (≈ 352 µM), an MIC (Staphylococcus aureus [7]) of 100 µg/mL (≈ 352 µM) and an MIC (Staphylococcus aureus [8]) of 100 µg/mL (≈ 352 µM). For the same compound, the MIC (Staphylococcus aureus [9]) was 100 µg/mL (≈ 352 µM).

COc1ccc(/C=C/C(=O)c2ccccc2)cc1OC showed an MIC (Staphylococcus aureus [3]) of 100 µg/mL (≈ 373 µM), an MIC (Staphylococcus aureus [4]) of 100 µg/mL (≈ 373 µM) and an MIC (Staphylococcus aureus [5]) of 100 µg/mL (≈ 373 µM). For the same compound, the MIC (Staphylococcus aureus [6]) was 100 µg/mL (≈ 373 µM), the MIC (Staphylococcus aureus [7]) was 100 µg/mL (≈ 373 µM) and the MIC (Staphylococcus aureus [8]) was 100 µg/mL (≈ 373 µM). For the same compound, the MIC (Staphylococcus aureus [9]) was 100 µg/mL (≈ 373 µM).

In the case of O=C(OC[C@]1(O)[C@H](OC(=O)c2ccccc2)C=C[C@@H](OC(=O)c2ccccc2)[C@@H]1O)c1ccccc1, the MIC (Staphylococcus aureus [10]) is reported as 32 µg/mL and the “fractional inhibitory concentration index (FICI)” value (Staphylococcus aureus [11]) is reported as 0.52.

With CC(C)=CCC1=C(NCCO)C(=O)c2ccccc2C1=O the MIC [12] was 80 µg/mL, the MIC (Staphylococcus aureus [13]) was no less than 1020 µg/mL and the MIC [14] was 1 µg/mL. For the same compound, the MIC [15] was 32 µg/mL, the MIC [16] was 16 µg/mL and the MIC (Staphylococcus aureus [17]) was no less than 1020 µg/mL.

Compound CC(C)=CCC1=C(NCCCO)C(=O)c2ccccc2C1=O has an MIC [12] of 102 µg/mL, an MIC (Staphylococcus aureus [13]) of no less than 1020 µg/mL and an MIC [14] of 4 µg/mL. For the same compound, the MIC [15] was 64 µg/mL, the MIC [16] was 32 µg/mL and the MIC (Staphylococcus aureus [17]) was no less than 1020 µg/mL.

In the case of COC(=O)c1cc(/C=C/C(=O)c2cccc(O)c2)ccc1OC, the MIC (Staphylococcus aureus [3]) is reported as 100 µg/mL (≈ 320 µM), the MIC (Staphylococcus aureus [4]) is reported as 100 µg/mL (≈ 320 µM) and the MIC (Staphylococcus aureus [5]) is reported as 100 µg/mL (≈ 320 µM). The MIC (Staphylococcus aureus [6]) was 100 µg/mL (≈ 320 µM), the MIC (Staphylococcus aureus [7]) was 100 µg/mL (≈ 320 µM) and the MIC (Staphylococcus aureus [8]) was 100 µg/mL (≈ 320 µM). The MIC (Staphylococcus aureus [9]) was 100 µg/mL (≈ 320 µM).

In the case of CC(C)=CC1=C(NCCO)C(=O)c2ccccc2C1=O, the MIC [12] is reported as 50.8 µg/mL, the MIC (Staphylococcus aureus [13]) is reported as no less than 1020 µg/mL and the MIC [14] is reported as 2.51 µg/mL. It also gave an MIC [15] of 128 µg/mL, an MIC [16] of 32 µg/mL and an MIC (Staphylococcus aureus [17]) of no less than 1020 µg/mL.

Work on COc1ccc(-c2cc(=O)c3ccc(O)cc3o2)cc1O yielded an MIC (Staphylococcus aureus [18]) of 32 µg/mL (≈ 113 µM), an MIC (Staphylococcus aureus [19]) of 32 µg/mL (≈ 113 µM) and an MIC (Staphylococcus aureus [20]) of 32 µg/mL (≈ 113 µM). For the same compound, the MIC (Staphylococcus aureus [21]) was 32 µg/mL (≈ 113 µM) and the MIC (Staphylococcus aureus [22]) was 32 µg/mL (≈ 113 µM).

C/C=C/c1cc(OC)c2c(c1)[C@H](C)[C@@H](c1ccc(OC)c(OC)c1)O2 was tested, and the MIC (Staphylococcus aureus [10]) was 8 µg/mL and the “fractional inhibitory concentration index (FICI)” value (Staphylococcus aureus [11]) was 0.13.

C=CC[C@]12C=C(OC)C(=O)[C@H]([C@@H](c3ccc4c(c3)OCO4)[C@@H]1C)[C@@H]2OC(C)=O was tested, and the MIC (Staphylococcus aureus [10]) was 16 µg/mL and the “fractional inhibitory concentration index (FICI)” value (Staphylococcus aureus [11]) was 0.25.

Compound COc1ccc(-c2cc(=O)c3c(O)cc(O[C@@H]4O[C@H](CO[C@@H]5O[C@@H](C)[C@H](O)[C@@H](O)[C@H]5O)[C@@H](O)[C@H](O)[C@H]4O)cc3o2)cc1O has an MIC [23] of 32 µg/mL.

With COc1ccc([C@@H]2CC(=O)c3c(O)cc(O)cc3O2)cc1O the MIC [23] was 8 µg/mL and the MIC [24] was 16 µg/mL.

Compound C[C@@H]1O[C@@H](Oc2c(-c3cc(O)c(O)c(O)c3)oc3cc(O)cc(O)c3c2=O)[C@H](O)[C@H](O)[C@H]1O has an MIC [23] of 32 µg/mL.

Work on C[C@@H]1O[C@@H](Oc2c(-c3ccc(O)c(O)c3)oc3cc(O)cc(O)c3c2=O)[C@H](O)[C@H](O)[C@H]1O yielded an MIC [23] of 64 µg/mL.

O=C(CCc1ccc(O)cc1)c1c(O)cc(O)cc1O showed an MIC [23] of 32 µg/mL and an MIC [24] of 8 µg/mL.
